The target in test [1] is T1, recombinant N-terminal GST-tagged human Rho kinase 1 (ROCK1, amino acids 1-535) (Homo sapiens, UniProt Q13464).
T1 construct: ROCK1, amino acids 1-535; purchased Invitrogen Inc. PV-3691
The test is described as follows: In vitro Rho kinase assay (luciferase-based ATP consumption), ROCK1. The test is classed as biochemical. The procedure, abridged: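 ATP depletion measured by firefly luciferase luminescence after 2 h at 30 °C, with inhibition raising signal and activity expressed relative to H-1152P. Reaction: 0.82 μg/ml recombinant GST-tagged ROCK1 (aa 1-535), S6 peptide 100 μg/ml, […], pH 7.5 Tris buffer.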

The target in test [2] is T2, recombinant N-terminal GST-tagged human Rho kinase 2 (ROCK2, amino acids 1-552) (Homo sapiens, UniProt O75116).
T2 construct: ROCK2, amino acids 1-552; purchased Invitrogen Inc. PV3759
T2 sequence (O75116 1-552): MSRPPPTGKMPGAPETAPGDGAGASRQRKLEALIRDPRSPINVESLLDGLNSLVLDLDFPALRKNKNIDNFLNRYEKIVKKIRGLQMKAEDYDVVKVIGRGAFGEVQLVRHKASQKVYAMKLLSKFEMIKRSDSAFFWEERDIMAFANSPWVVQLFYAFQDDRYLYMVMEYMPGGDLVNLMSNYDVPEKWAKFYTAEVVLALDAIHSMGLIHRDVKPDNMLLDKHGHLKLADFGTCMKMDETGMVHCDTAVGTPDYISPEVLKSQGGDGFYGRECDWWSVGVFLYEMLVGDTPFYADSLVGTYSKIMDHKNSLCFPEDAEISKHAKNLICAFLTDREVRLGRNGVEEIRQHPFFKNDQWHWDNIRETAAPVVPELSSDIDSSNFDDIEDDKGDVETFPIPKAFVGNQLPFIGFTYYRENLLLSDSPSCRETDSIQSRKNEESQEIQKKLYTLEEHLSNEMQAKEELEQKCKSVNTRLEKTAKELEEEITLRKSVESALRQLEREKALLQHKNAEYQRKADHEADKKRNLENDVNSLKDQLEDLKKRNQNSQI
As to the kind of experiment: In vitro Rho kinase assay (luciferase-based ATP consumption), ROCK2. In kind it is biochemical. The procedure, abridged: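 Luciferase-based luminescence of leftover ATP after 2 h at 30 °C, where inhibition raises signal, reports activity of GST-tagged ROCK2 (aa 1-552) at 0.82 μg/ml. Conditions: S6 peptide 100 μg/ml, […], pH 7.5 Tris buffer. Results given as percent of H-1152P control activity.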

Where [3] appears, read: recombinant GST-tagged human ROCK1, luciferase-based ATP consumption, read-out: ROCK1 IC50.
Where [4] appears, read: recombinant GST-tagged human ROCK2, luciferase-based ATP consumption, read-out: ROCK2 IC50.

A word on the IC50: it is the point on the concentration scale where inhibition reaches its midpoint.

Structures are written as SMILES. Where two headings read alike, the source gives them in different places.

T1 sequence (Q13464 1-535): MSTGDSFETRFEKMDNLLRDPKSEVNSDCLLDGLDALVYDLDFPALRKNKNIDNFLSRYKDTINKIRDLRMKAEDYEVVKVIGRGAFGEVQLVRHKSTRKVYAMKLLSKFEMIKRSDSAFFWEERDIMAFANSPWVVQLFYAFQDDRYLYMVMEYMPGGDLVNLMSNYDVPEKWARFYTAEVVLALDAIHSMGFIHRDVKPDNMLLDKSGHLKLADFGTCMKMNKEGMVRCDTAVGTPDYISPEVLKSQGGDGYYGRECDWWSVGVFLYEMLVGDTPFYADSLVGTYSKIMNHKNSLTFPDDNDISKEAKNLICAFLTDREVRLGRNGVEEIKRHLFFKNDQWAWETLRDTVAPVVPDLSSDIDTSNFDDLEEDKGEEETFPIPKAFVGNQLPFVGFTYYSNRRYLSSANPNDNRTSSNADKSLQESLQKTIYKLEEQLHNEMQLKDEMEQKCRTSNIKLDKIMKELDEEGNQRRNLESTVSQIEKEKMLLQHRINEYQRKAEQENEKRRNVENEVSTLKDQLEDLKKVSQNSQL

Consider `Cc1c(-c2ccnc(N)n2)sc2ccc(CNC(=O)c3ccc4ncccc4c3)cc12` [Example 192, Cc1c(sc2ccc(CNC(═O)c3ccc4ncccc4c3)cc12)-c5ccnc(N)n5], for which the IC50 in test [1] (setting [3]) is > 5 µM; in test [2] (setting [4]), < 5 µM.
For `Cc1c(-c2ccnc(N)n2)sc2ccc(CNC(=O)c3ccc(Cl)c(Br)c3)cc12` [Example 315, Cc1c(sc2ccc(CNC(═O)c3ccc(Cl)c(Br)c3)cc12)-c4ccnc(N)n4], in that order: < 5 µM and < 5 µM.
For `COc1ccc(O)c(C(=O)NCc2ccc3sc(-c4ccnc(N)n4)c(C)c3c2)c1` [Example 182, COc1ccc(O)c(c1)C(═O)NCc2ccc3sc(c(C)c3c2)-c4ccnc(N)n4] the same measures were > 5 µM and < 5 µM.
For `Cc1c(-c2ccnc(N)n2)sc2ccc(CNC(=O)c3ccc(I)cc3)cc12` [Example 319, Cc1c(sc2ccc(CNC(═O)c3ccc(I)cc3)cc12)-c4ccnc(N)n4] the same measures were > 5 µM and < 5 µM.
As to `COC(=O)c1cccc(Sc2ccc3sc(-c4ccnc(N)n4)c(C)c3c2)c1` [Example 85, Methyl 3-(2-(2-aminopyrimidin-4-yl)-3-methylbenzo[b]thiophen-5-ylthio)benzoate], the concentration for half-maximal inhibition (IC50) in test [1] (setting [3]) and in test [2] (setting [4]) was < 5 µM each time.
Turning to `Cc1c(-c2ccnc(N)n2)sc2ccc(CNC(=O)C3CCCCN3C(=O)OC(C)(C)C)cc12` (centres unmarked) [Example 305, Cc1c(sc2ccc(CNC(═O)[C]3CCCCN3C(═O)OC(C)(C)C)cc12)-c4ccnc(N)n4], the 50% inhibitory concentration (IC50) in test [1] (setting [3]) and in test [2] (setting [4]) was > 5 µM in each case.
Consider `CC(=O)Oc1cccc(C(=O)NCc2ccc3sc(-c4ccnc(N)n4)c(C)c3c2)c1` [Example 210, CC(═O)Oc1cccc(c1)C(═O)NCc2ccc3sc(c(C)c3c2)-c4ccnc(N)n4], for which the half-inhibitory concentration (IC50) in test [1] (setting [3]) and in test [2] (setting [4]) was < 5 µM in each case.
In the case of `Cc1c(-c2ccnc(N)n2)sc2ccc(CNC(=O)c3cc(C(C)C)cc(C(C)C)c3O)cc12` [Example 298, CC(C)c1cc(C(C)C)c(O)c(c1)C(═O)NCc2ccc3sc(c(C)c3c2)-c4ccnc(N)n4], the concentration for half-maximal inhibition (IC50) in test [1] (setting [3]) and in test [2] (setting [4]) was < 5 µM each time.
In the case of `CCCOc1ccc(C(=O)NCc2ccc3sc(-c4ccnc(N)n4)c(C)c3c2)cc1` [Example 213, CCCOc1ccc(cc1)C(═O)NCc2ccc3sc(c(C)c3c2)-c4ccnc(N)n4], the IC50 in test [1] (setting [3]) was < 5 µM; in test [2] (setting [4]), > 5 µM.
On to `Cc1c(-c2ccnc(N)n2)sc2ccc(CNC(=O)c3ccc(F)c(F)c3)cc12` [Example 157, Cc1c(sc2ccc(CNC(═O)c3ccc(F)c(F)c3)cc12)-c4ccnc(N)n4], for which the IC50 in test [1] (setting [3]) is > 5 µM; in test [2] (setting [4]), < 5 µM.
In the case of `CCCCc1ccc(C(=O)NCc2ccc3sc(-c4ccnc(N)n4)c(C)c3c2)cc1` [Example 203, CCCCc1ccc(cc1)C(═O)NCc2ccc3sc(c(C)c3c2)-c4ccnc(N)n4], the concentration for half-maximal inhibition (IC50) in test [1] (setting [3]) and in test [2] (setting [4]) was > 5 µM each time.
For the molecule `Cc1c(-c2ccnc(N)n2)sc2ccc(CNC(=O)c3cc(F)c(F)c(O)c3F)cc12` [Example 248, Cc1c(sc2ccc(CNC(═O)c3cc(F)c(F)c(O)c3F)cc12)-c4ccnc(N)n4], the half-inhibitory concentration (IC50) in test [1] (setting [3]) and in test [2] (setting [4]) was < 5 µM each time.
As to `CC(=O)Oc1ccc(C(=O)Nc2cccc(Nc3ccc4sc(-c5ccnc(N)n5)c(C)c4c3)c2)cc1` [Example 60, 4-(3-(2-(2-Aminopyrimidin-4-yl)-3-methylbenzo[b]thiophen-5-ylamino)phenylcarbamoyl)phenyl acetate], the concentration for half-maximal inhibition (IC50) in test [1] (setting [3]) and in test [2] (setting [4]) was < 5 µM throughout.
With `Cc1c(-c2ccnc(N)n2)sc2ccc(CNC(=O)c3cc(F)cc(F)c3)cc12` [Example 156, Cc1c(sc2ccc(CNC(═O)c3cc(F)cc(F)c3)cc12)-c4ccnc(N)n4], the IC50 in test [1] (setting [3]) and in test [2] (setting [4]) was < 5 µM each time.
As for `Cc1c(-c2ccnc(N)n2)oc2ccc(Cc3cccc(O)c3)cc12` [Example 92, 3-((2-(2-Aminopyrimidin-4-yl)-3-methylbenzofuran-5-yl)methyl)phenol], the concentration for half-maximal inhibition (IC50) in test [1] (setting [3]) and in test [2] (setting [4]) was < 5 µM each time.
With `Cc1c(-c2ccnc(N)n2)sc2ccc(CNC(=O)c3cccc(Br)n3)cc12` [Example 270, Cc1c(sc2ccc(CNC(═O)c3cccc(Br)n3)cc12)-c4ccnc(N)n4], the IC50 in test [1] (setting [3]) and in test [2] (setting [4]) was < 5 µM in each case.
In the case of `Cc1c(-c2ccnc(N)n2)sc2ccc(CN)cc12` [Example 33, 4-(5-(Aminomethyl)-3-methylbenzo[b]thiophen-2-yl)pyrimidin-2-amine], the IC50 in test [1] (setting [3]) and in test [2] (setting [4]) was < 5 µM throughout.
Turning to `Cc1c(-c2ccnc(N)n2)sc2ccc(CNC(=O)c3ccc(C(F)(F)F)cc3[N+](=O)[O-])cc12` [Example 313, Cc1c(sc2ccc(CNC(═O)c3ccc(cc3[N+]([O−])═O)C(F)(F)F)cc12)-c4ccnc(N)n4], the IC50 in test [1] (setting [3]) and in test [2] (setting [4]) was < 5 µM each time.
`Cc1c(-c2ccnc(N)n2)sc2ccc(C(=O)O)cc12` [Example 19, 2-(2-Aminopyrimidin-4-yl)-3-methylbenzo[b]thiophene-5-carboxylic acid]: the results for the concentration for half-maximal inhibition (IC50) in test [1] (setting [3]) and in test [2] (setting [4]) were < 5 µM and > 5 µM, respectively.
For `Cc1c(-c2ccnc(N)n2)sc2ccc(CNC(=O)C=O)cc12` [Example 96, Cc1c(sc2ccc(CNC(═O)C═O)cc12)-c3ccnc(N)n3], in that order: > 5 µM and > 5 µM.
Turning to `Cc1c(-c2ccnc(N)n2)sc2ccc(Cc3cccc(OCCCN)c3)cc12` [Example 31, 4-(5-(3-(3-Aminopropoxy)benzyl)-3-methylbenzo[b]thiophen-2-yl)pyrimidin-2-amine], the half-maximal inhibitory concentration (IC50) in test [1] (setting [3]) and in test [2] (setting [4]) was < 5 µM in each case.
As for `Cc1c(-c2ccnc(N)n2)sc2ccc(CNC(=O)CC(C)C)cc12` [Example 101, CC(C)CC(═O)NCc1ccc2sc(c(C)c2c1)-c3ccnc(N)n3], the half-inhibitory concentration (IC50) in test [1] (setting [3]) and in test [2] (setting [4]) was < 5 µM each time.
Turning to `Cc1c(-c2ccnc(N)n2)sc2ccc(CNC(=O)C=Cc3ccccc3C(F)(F)F)cc12` [Example 290, Cc1c(sc2ccc(CNC(═O)C═Cc3ccccc3C(F)(F)F)cc12)-c4ccnc(N)n4], the IC50 in test [1] (setting [3]) and in test [2] (setting [4]) was > 5 µM each time.
Take `Cc1c(-c2ccnc(N)n2)sc2ccc(Nc3cccc(OC(F)(F)F)c3)cc12` [Example 54, 4-(3-Methyl-5-(3-(trifluoromethoxy)phenylamino)benzo[b]thiophen-2-yl)pyrimidin-2-amine]: the half-inhibitory concentration (IC50) in test [1] (setting [3]) and in test [2] (setting [4]) was > 5 µM each time.
For `Cc1ccc(F)cc1C(=O)NCc1ccc2sc(-c3ccnc(N)n3)c(C)c2c1` [Example 146, Cc1ccc(F)cc1C(═O)NCc2ccc3sc(c(C)c3c2)-c4ccnc(N)n4], the concentration for half-maximal inhibition (IC50) in test [1] (setting [3]) was > 5 µM; in test [2] (setting [4]), < 5 µM.
Turning to `Cc1c(-c2ccnc(N)n2)sc2ccc(CNC(=O)c3c(Cl)cc(Cl)cc3Cl)cc12` [Example 300, Cc1c(sc2ccc(CNC(═O)c3c(Cl)cc(Cl)cc3Cl)cc12)-c4ccnc(N)n4], the IC50 is > 5 µM in test [1] (ROCK1 IC50, recombinant GST-tagged human ROCK1, luciferase-based ATP consumption) and < 5 µM in test [2] (ROCK2 IC50, recombinant GST-tagged human ROCK2, luciferase-based ATP consumption).
Consider `Cc1c(-c2ccnc(N)n2)sc2ccc(CNC(=O)Cc3ccc(Br)cc3)cc12` [Example 288, Cc1c(sc2ccc(CNC(═O)Cc3ccc(Br)cc3)cc12)-c4ccnc(N)n4], for which the IC50 in test [1] (setting [3]) and in test [2] (setting [4]) was < 5 µM throughout.
`Cc1c(-c2ccnc(N)n2)sc2ccc(Nc3cncc(C(=O)O)c3)cc12` [Example 71, 5-(2-(2-Aminopyrimidin-4-yl)-3-methylbenzo[b]thiophen-5-ylamino)nicotinic acid]: the IC50 in test [1] (setting [3]) and in test [2] (setting [4]) was < 5 µM each time.

Source of the values: patent publication US20080021026A1, “BENZOTHIOPHENE INHIBITORS OF RHO KINASE” (priority 2006, published 2008).
